Measurements as given in US20130079370A1, “Method for the Inhibition of Deubiquitinating Activity” (priority 2011, published 2013).

What was measured:
human 19S RP = target: T1, human 19S RP (Homo sapiens, UniProt P54578+Q9Y5K5); test: De-ubiquitinase activity assay, Ub-AMC cleavage by 19S RP; type: biochemical; settings: read-out: IC50, DUB activity by detection of Ub-AMC cleavage
T1 construct: purchased Boston Biochem E-366

[1] = tested on: HCT-116 Bcl2+ colon carcinoma xenografts; test: HCT-116 Bcl2+ colon carcinoma xenografts in nude mice, tumor onset; type: in vivo; settings: 5 mg/kg 4-5 times weekly for 3 weeks; log-rank P=0.0136; vs vehicle
Experimental: Animal experiments were conducted in full accordance with Swedish governmental statutory regulations on animal welfare under permission from local ethical committees. Animals were housed at a max of five per cage and provided with sterile water and food ad libitum. All mice were monitored and weighed daily. For the head and neck carcinoma model a 100-μl cell suspension containing 1×10^6 FaDu cells was injected subcutaneously into the right rear flank of the animals. After injection, tumor growth was measured daily with calipers and the tumor volume calculated by the formula L×W^2×0.44. When tumors had grown to a size of approximately 200 mm^3 (Day 0) mice were randomized to receive either vehicle (n=10) or b-AP15 5 mg/kg by subcutaneous injection s.c. (n=15) daily. […] Nineteen days after malignant cell injection all of the mice were killed and histopathological manifestations of liver, ovary (target organs for this model of tumor) were evaluated and compared between groups. […]
SCID mice bearing FaDu human tumor xenografts were randomized at tumor take (200 mm^3) and treated by daily subcutaneous injection with either vehicle (n=10) or 5 mg kg^−1 b-AP15 (n=15) for 10 days. […] Mice were treated with vehicle (n=6) or 5 mg kg^−1 b-AP15 (n=6) 4-5 times weekly for 3 weeks and monitored for tumor onset (log-rank, P=0.0136, hazard ratio=7.9). […]

[2] = tested on: orthotopic breast carcinomas (4T1); test: Orthotopic breast carcinoma (4T1) model; type: in vivo, BALB/c mice; settings: 2.5 mg/kg i.p., 1 day on/3 days off
HCT116 cells = type: cell-based; settings: human
Text: These findings indicate that high molecular weight ubiquitin substrate complexes accumulating as a result of DUB inhibition can generate strong cytotoxicity that is insensitive to Bcl-2 over-expression. [table]

## C=CC(=O)N1C/C(=C\c2ccc([N+](=O)[O-])cc2)C(=O)/C(=C/c2ccc([N+](=O)[O-])cc2)C1 [b-AP15, (3E,5E)-3,5-bis[(4-nitrophenyl)methylidene]-1-(prop-2-enoyl)piperidin-4-one]
Human 19S RP
  IC50: 2100 ± 411 nM
[1]
  hazard ratio, disease free survival: 7.9
[2]
  difference in weight at the start and the endpoint between control and treated animals: +5.8%
HCT116 cells
  Fold induction DNAJB1 (Hsp40B1): 22 fold
  Fold induction HSPA1B: 21 fold
